US10730883B2 (AbbVie Inc., priority 2015, dated 2020)
Converted amounts (≈) assume the structure as drawn.

Experiments:
[1] = Chemical stability of solid state forms in closed vials at controlled temperature and relative humidity; assay type: physicochemical
Experimental: (§1) The Amorphous Freebase, however, is hygroscopic and can comprise as much as 12% by weight water at 25° C./90% relative humidity. Environmental controls potentially are required to ensure appropriate control of potency and water content during storage, dispensing, and handling of the Amorphous Freebase.
(§2) The Tartrate Hydrate, however, potentially will convert to an amorphous tartrate below 10% relative humidity, when heated, or when compressed or under shear.

[2] = Stability of solid state forms to light and peroxide; assay type: physicochemical
Experimental: as §1, §2

[3] = Hygroscopicity / moisture sorption isotherm of solid state forms; assay type: physicochemical
Source text: FIG. 6A is a moisture sorption isotherm corresponding to the Amorphous Freebase (via dehydration).
FIG. 6C is a moisture sorption isotherm corresponding to the Tartrate Hydrate.
FIG. 6D is a moisture sorption isotherm corresponding to the Freebase Anhydrate Form D.
In one embodiment, the Tartrate Hydrate has a moisture sorption isotherm profile showing a weight gain of about 1% to about 2% when relative humidity is increased from about 10% relative humidity to about 90% relative humidity at a temperature of 25° C.

[4] = Solubility of solid state forms; assay type: physicochemical; settings: Amorphous Freebase: relative to the corresponding crystalline forms
[5] = Bioavailability of solid state forms; assay type: in vivo; settings: relative to the corresponding crystalline forms
[6] = Equilibrium solubility; assay type: physicochemical
Experimental: After equilibration, the mixtures were inspected to assure that the amount of excess solid was sufficient to permit re-characterization. […] The pH of aqueous suspensions was determined after equilibration. The solid phase was separated from the liquid phase by centrifugation at 3300 rpm at equilibration temperatures (i.e., 25° C. or 37° C.). The supernatant was then filtered (13 mm Acrodisc® syringe filter with 0.45μ GHP membrane, Pall® Life Sciences, Ann Arbor, Mich.) to discard the initial 2 mL (to saturate filter) and capture the last 1 mL for analysis. The filtrate was diluted as needed for quantification of the material studied by HPLC method (as detailed elsewhere herein). The physical form of the recovered solid was characterized by powder X-ray diffraction to examine whether or not phase change had occurred

[7] = Solid state accelerated stability study; assay type: physicochemical; settings: for Growth of degradation products: open and closed glass vials
Experimental: Samples (approximately 1 mg to 2 mg) of the solid state form were weighed into glass vials and tested as described below.

[8] = Moisture sorption isotherm; assay type: physicochemical; settings: 90% relative humidity at 25° C.
Experimental: Moisture vapor isotherm data were collected with a DVS Advantage (Surface Measurement Systems Ltd, Alperton, United Kingdom). The sample powder (5 mg to 20 mg) was loaded on a tared pan of the DVS Advantage. The moisture sorption isotherm data were collected from 30-0-90-0-30% relative humidity in 10% relative humidity intervals. For each step, the dm/dt criteria was 0.001% over 5 minutes, a minimum dm/dt time of 30 minutes, and a maximum dm/dt of 120 minutes. Data was collected isothermally at 25° C. with a nitrogen flow rate of 200 cm^3/minute. The post DVS sample was kept at approximately 30% relative humidity before PXRD analysis.

[9] = general statement on the solid state form

## CC[C@@H]1CN(C(=O)NCC(F)(F)F)C[C@@H]1c1cnc2cnc3[nH]ccc3n12 [Amorphous Freebase, (3S,4R)-3-ethyl-4-(3H-imidazo[1,2-a]pyrrolo[2,3-e]pyrazin-8-yl)-N-(2,2,2-trifluoroethyl)pyrrolidine-1-carboxamide]
[1]; closed vials, 30° C./65% relative humidity and 40° C./75% relative humidity over 12 weeks, 50° C./75% relative humidity over 6 weeks
  degradation observed in closed vials: no degradation
[1]; [9]
  chemical stability: acceptable chemical stability
[2]
  stability to light and peroxide: acceptable stability
[3]; 25° C./90% relative humidity
  water content (hygroscopicity): ≤ 12 % by weight
[3]; [9]
  hygroscopicity: hygroscopic
[4]
  Solubility: greater solubility
[5]
  bioavailability: increased bioavailability
[6]; FasSIF (pH 6.5 at 37° C.)
  Solubility: 1140 µg/mL (≈ 3 mM)
[6]; FedSIF (pH 5.0 at 37° C.)
  Solubility: 2130 µg/mL (≈ 5.6 mM)
[6]; pH 1 at 25° C.
  Solubility: >3500 µg/mL
[6]; pH 7.4 at 25° C.
  Solubility: 680 µg/mL (≈ 1.79 mM)
[7]; 40° C./75% relative humidity, up to 24 weeks
  Growth of degradation products: no growth of degradation products
[7]; 50° C./75% relative humidity, up to six weeks
  Growth of degradation products: no growth of degradation products
[7]; solid state accelerated stability study
  chemical stability: acceptable
[7]; storage conditions of the accelerated stability study
  Change in attributes evaluated (description, crystal form, assay, impurities and water content): No material change
[8]
  Moisture sorption (reversibly sorbs up to): up to 13%
